The ED50 is the midpoint of the dose-response relation. Usually melting point stands for the temperature of the solid-liquid transition.

Here are results for six compounds from patent US20100298384A1, “NOVEL OXAZOLIDINONE COMPOUNDS AS ANTIINFECTIVE AGENTS” (priority 2006, published 2010).

Structures are written as SMILES.

For series [1], the system named is S. aureus ATCC 29213 and other strains. Briefly: Systemic infection model in mice, ED50 by Probit analysis. In kind it is in vivo. The following applies: Staphylococcus aureus, ATCC29213, Swiss albino mice, survival observed 5 to 7 days, route and regimen not stated per value. On the procedure: Efficacies of the molecules were determined by systemic infection model. In this model, 6-7 weeks old Swiss albino mice (3 Males and 3 Females/group) weighing 21-25 grams were used. S. aureus ATCC 29213 and other strains were cultured on Columbia Blood agar (DIFCO), overnight, at 37° C. for 18 to 24 hours. Inoculum was prepared in 0.9% saline and optical density (OD) was adjusted at 560 nm to get 100×LD50 dose. Inoculum was diluted 1:1 with 10% Hog Gastric Mucin and 0.5 ml of inoculum was injected intraperitonially to each animal. Test compounds were solubilised in suitable formulation and administered by per-oral, subcutaneous or intra venous route by q.d., b.i.d. or t.i.d. protocol. […] ED50 Value (mg/kg) was calculated by Probit analysis.

The compound `COC(=O)NC[C@H]1CN(c2ccc(-n3cnc(Cn4cccn4)c3)c(F)c2)C(=O)O1` [Example 44, Methyl {3-[3-fluoro-4-(4-pyrazol-1-ylmethyl-imidazol-1-yl)-phenyl]-2-oxo-oxazolidin-5-ylmethyl}-carbamate] returned a melting point of 130 °C. Moreover, in series [1], the ED50 is 5.02 mg/kg.

Compound `CC(=O)NC[C@H]1CN(c2ccc(-c3nc(Cn4cncn4)co3)c(F)c2)C(=O)O1` [Example 4, N-{3-[3-fluoro-4-(4-[1,2,4]-triazol-1-ylmethyl-oxazol-2-yl)-phenyl]-2-oxo-oxazolidin-5(S)-ylmethyl}-acetamide] displayed a melting point of 160 to 162 °C. The ED50 in series [1] is 5.38 mg/kg.

Regarding `CC(=O)NC[C@H]1CN(c2ccc(-c3nc(Cn4cccn4)co3)c(F)c2)C(=O)O1` [Example 2, N-{3-[3-fluoro-4-(4-pyrazol-1-ylmethyl-oxazol-2-yl)-phenyl]-2-oxo-oxazolidin-5(S)-ylmethyl}-acetamide], the melting point lay within 204 to 206 °C. For the same compound, in series [1], the ED50 is 7.1 mg/kg.

`COC(=O)NC[C@H]1CN(c2ccc(-n3cc(Cn4cccn4)nn3)c(F)c2)C(=O)O1` [Example 46, Methyl N-{3-[3-fluoro-4-(4-pyrazol-1-yl-methyl-(1,2,3)triazol-1-yl)-phenyl]-2-oxo-oxazolidin-5-ylmethyl}carbamate] gave an ED50 in series [1] of 2.53 mg/kg.

In turn, `CC(=O)NC[C@H]1CN(c2ccc(-n3cc(Cn4cncn4)nn3)c(F)c2)C(=O)O1` [Example 30] yielded a melting point of 170 to 171 °C. The ED50 in series [1] worked out at 8.5 mg/kg.

The compound `COC(=S)NC[C@H]1CN(c2ccc(-c3nc(Cn4cncn4)cs3)c(F)c2)C(=O)O1` [Example 52, O-methyl {3-[3-fluoro-4-(4-[1,2,4]triazol-1-ylmethyl-thiazol-2-yl)-phenyl]-2-oxo-oxazolidin-5(S)-ylmethyl}-thiocarbamate] had a melting point of 189 to 191 °C.
